Experimental data from ChEMBL document CHEMBL1137864, “End-capping of the modified melanocortin tetrapeptide (p-Cl)Phe-D-Phe-Arg-Trp-NH2 as a route to hMC4R agonists” (Bioorg Med Chem Lett, 2004).

Experiments:
[1] = biological target: Melanocyte-stimulating hormone receptor (Homo sapiens, UniProt Q01726); test: Agonistic activity against human Melanocortin 1 receptor; assay type: functional
[2] = biological target: Melanocortin receptor (M1 and M4) (Homo sapiens) (UniProt P32245+Q01726); test: Ratio of EC50 of Melanocortin 4 receptor to that of Melanocortin 1 receptor; assay type: protein assay
[3] = biological target: Melanocortin receptor 4 (Homo sapiens, UniProt P32245); test: Agonistic activity against human Melanocortin 4 receptor; assay type: functional
[4] = biological target: Melanocortin receptor 3 (Homo sapiens, UniProt P41968); test: Agonistic activity against human Melanocortin 3 receptor; assay type: functional
[5] = biological target: Melanocortin receptor (M3 and M4) (Homo sapiens) (UniProt P32245+P41968); test: Ratio of EC50 of Melanocortin 4 receptor to that of Melanocortin 3 receptor; assay type: protein assay

Sequence of Melanocortin receptor 3 (P41968 whole entry): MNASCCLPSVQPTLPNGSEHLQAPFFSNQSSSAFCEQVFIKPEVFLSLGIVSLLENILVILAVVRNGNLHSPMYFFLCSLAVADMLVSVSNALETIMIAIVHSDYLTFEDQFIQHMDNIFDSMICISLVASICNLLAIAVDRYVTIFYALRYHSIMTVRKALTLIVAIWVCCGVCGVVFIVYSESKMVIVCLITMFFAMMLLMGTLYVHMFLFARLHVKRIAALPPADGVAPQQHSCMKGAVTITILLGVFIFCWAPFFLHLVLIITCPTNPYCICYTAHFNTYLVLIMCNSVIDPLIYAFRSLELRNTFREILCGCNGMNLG
Sequence of Melanocortin receptor 4 (P32245 whole entry): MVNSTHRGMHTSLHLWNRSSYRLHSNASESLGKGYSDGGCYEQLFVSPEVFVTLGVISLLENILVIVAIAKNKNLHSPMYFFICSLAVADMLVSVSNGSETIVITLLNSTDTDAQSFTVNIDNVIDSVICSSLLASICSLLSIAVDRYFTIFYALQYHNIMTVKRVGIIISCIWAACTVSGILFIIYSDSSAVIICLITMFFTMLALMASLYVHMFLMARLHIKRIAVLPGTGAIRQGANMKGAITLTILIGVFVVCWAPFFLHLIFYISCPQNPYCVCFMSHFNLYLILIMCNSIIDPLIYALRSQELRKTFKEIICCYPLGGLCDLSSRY
Sequence of Melanocyte-stimulating hormone receptor (Q01726 whole entry): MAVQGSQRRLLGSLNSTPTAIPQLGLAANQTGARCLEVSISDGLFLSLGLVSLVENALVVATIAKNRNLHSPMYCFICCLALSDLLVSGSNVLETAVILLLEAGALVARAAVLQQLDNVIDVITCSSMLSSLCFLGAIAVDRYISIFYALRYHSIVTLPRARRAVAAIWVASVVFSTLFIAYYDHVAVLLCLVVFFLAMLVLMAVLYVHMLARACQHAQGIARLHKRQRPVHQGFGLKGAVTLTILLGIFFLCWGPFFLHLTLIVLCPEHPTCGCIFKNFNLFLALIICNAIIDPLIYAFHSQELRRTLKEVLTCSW

Row | SMILES | EC50 [1] | Ratio [2] | EC50 [3] | EC50 [4] | Ratio [5]
1 | N=C(N)NCCC[C@H](NC(=O)C(Cc1ccccc1)NC(=O)[C@H](Cc1ccc(Cl)cc1)NC(=O)CO)C(=O)N[C@@H](Cc1c[nH]c2ccccc12)C(N)=O (stereo in doubt) | 499 nM | 4 | 114 nM | 1450 nM | 13
2 | N=C(N)NCCC[C@H](NC(=O)C(Cc1ccccc1)NC(=O)[C@H](Cc1ccc(Cl)cc1)NC(=O)c1cccnc1)C(=O)N[C@@H](Cc1c[nH]c2ccccc12)C(N)=O (stereo in doubt) | 577 nM | 28 | 21 nM | 313 nM | 15
3 | CS(=O)(=O)N[C@@H](Cc1ccc(Cl)cc1)C(=O)NC(Cc1ccccc1)C(=O)N[C@@H](CCCN=C(N)N)C(=O)N[C@@H](Cc1c[nH]c2ccccc12)C(N)=O (stereo in doubt) | 534 nM | 1 | 419 nM | 6700 nM | 16
4 | N=C(N)NCCC[C@H](NC(=O)C(Cc1ccccc1)NC(=O)[C@H](Cc1ccc(Cl)cc1)NC(=O)C1CC1)C(=O)N[C@@H](Cc1c[nH]c2ccccc12)C(N)=O (stereo in doubt) | 536 nM | 14 | 38.5 nM | 473 nM | 12
5 | N=C(N)NCCC[C@H](NC(=O)C(Cc1ccccc1)NC(=O)[C@H](Cc1ccc(Cl)cc1)NC(=O)Cc1ccccc1)C(=O)N[C@@H](Cc1c[nH]c2ccccc12)C(N)=O (stereo in doubt) | 699 nM | 35 | 20 nM | 43 nM | 2
6 | N=C(N)NCCC[C@H](NC(=O)C(Cc1ccccc1)NC(=O)[C@H](Cc1ccc(Cl)cc1)NS(=O)(=O)C(F)(F)F)C(=O)N[C@@H](Cc1c[nH]c2ccccc12)C(N)=O (stereo in doubt) | 2160 nM | 0.5 | 4530 nM | 1670 nM | 0.4
7 | COP(=O)(N[C@@H](Cc1ccc(Cl)cc1)C(=O)NC(Cc1ccccc1)C(=O)N[C@@H](CCCN=C(N)N)C(=O)N[C@@H](Cc1c[nH]c2ccccc12)C(N)=O)OC (stereo in doubt) | 785 nM | 6 | 137 nM | 2640 nM | 19
8 | N=C(N)NCCC[C@H](NC(=O)C(Cc1ccccc1)NC(=O)[C@H](Cc1ccc(Cl)cc1)NC(=O)CNC=O)C(=O)N[C@@H](Cc1c[nH]c2ccccc12)C(N)=O (stereo in doubt) | 600 nM | 43 | 14.1 nM | 757 nM | 54
9 | CCC(=O)N[C@@H](Cc1ccc(Cl)cc1)C(=O)NC(Cc1ccccc1)C(=O)N[C@@H](CCCN=C(N)N)C(=O)N[C@@H](Cc1c[nH]c2ccccc12)C(N)=O (stereo in doubt) | 1980 nM | 12 | 159 nM | 2360 nM | 15
10 | N=C(N)NCCC[C@H](NC(=O)C(Cc1ccccc1)NC(=O)[C@H](Cc1ccc(Cl)cc1)NC(=O)CCc1ccccc1)C(=O)N[C@@H](Cc1c[nH]c2ccccc12)C(N)=O (stereo in doubt) | 442 nM | 4 | 121 nM | 170 nM | 1
11 | N=C(N)NCCC[C@H](NC(=O)C(Cc1ccccc1)NC(=O)[C@H](Cc1ccc(Cl)cc1)NC(=O)CCCC(=O)c1ccccc1)C(=O)N[C@@H](Cc1c[nH]c2ccccc12)C(N)=O (stereo in doubt) | 23 nM | 0.4 | 58 nM | 41 nM | 0.7
12 | CC(=O)N[C@@H](Cc1c[nH]cn1)C(=O)NC(Cc1ccccc1)C(=O)NC(Cc1ccccc1)C(=O)N[C@@H](CCCN=C(N)N)C(=O)N[C@@H](Cc1c[nH]c2ccccc12)C(N)=O (stereo in doubt) | 13 nM | 0.1 | 59.5 nM | 170 nM | 0.7
13 | C=CCNC(=O)N[C@@H](Cc1ccc(Cl)cc1)C(=O)NC(Cc1ccccc1)C(=O)N[C@@H](CCCNC(=N)N)C(=O)N[C@@H](Cc1c[nH]c2ccccc12)C(N)=O (stereo in doubt) | 505 nM | 42 | 12 nM | 45 nM | 4
14 | N=C(N)NCCC[C@H](NC(=O)C(Cc1ccccc1)NC(=O)[C@H](Cc1ccc(Cl)cc1)NC(=O)c1ccsc1)C(=O)N[C@@H](Cc1c[nH]c2ccccc12)C(N)=O (stereo in doubt) | 671 nM | 25 | 27 nM | 674 nM | 25
15 | COP(=S)(N[C@@H](Cc1ccc(Cl)cc1)C(=O)NC(Cc1ccccc1)C(=O)N[C@@H](CCCN=C(N)N)C(=O)N[C@@H](Cc1c[nH]c2ccccc12)C(N)=O)OC (stereo in doubt) | 1890 nM | 4 | 446 nM | 1600 nM | 4
16 | CC(=O)N[C@@H](Cc1ccc(Cl)cc1)C(=O)NC(Cc1ccccc1)C(=O)N[C@@H](CCCN=C(N)N)C(=O)N[C@@H](Cc1c[nH]c2ccccc12)C(N)=O (stereo in doubt) | 867 nM | 10 | 88.5 nM | 553 nM | 6
17 | CC(C)C(=O)N[C@@H](Cc1ccc(Cl)cc1)C(=O)NC(Cc1ccccc1)C(=O)N[C@@H](CCCN=C(N)N)C(=O)N[C@@H](Cc1c[nH]c2ccccc12)C(N)=O (stereo in doubt) | 565 nM | 5 | 123 nM | 497 nM | 4
18 | CCCC(=O)N[C@@H](Cc1ccc(Cl)cc1)C(=O)NC(Cc1ccccc1)C(=O)N[C@@H](CCCN=C(N)N)C(=O)N[C@@H](Cc1c[nH]c2ccccc12)C(N)=O (stereo in doubt) | 803 nM | 8 | 106 nM | 827 nM | 8
19 | CSCC(=O)N[C@@H](Cc1ccc(Cl)cc1)C(=O)NC(Cc1ccccc1)C(=O)N[C@@H](CCCN=C(N)N)C(=O)N[C@@H](Cc1c[nH]c2ccccc12)C(N)=O (stereo in doubt) | 378 nM | 10 | 39.3 nM | 1020 nM | 26
20 | N#CCC(=O)N[C@@H](Cc1ccc(Cl)cc1)C(=O)NC(Cc1ccccc1)C(=O)N[C@@H](CCCNC(=N)N)C(=O)N[C@@H](Cc1c[nH]c2ccccc12)C(N)=O (stereo in doubt) | 567 nM | 54 | 10.5 nM | 3040 nM | 290
21 | CNC(=O)N[C@@H](Cc1ccc(Cl)cc1)C(=O)NC(Cc1ccccc1)C(=O)N[C@@H](CCCN=C(N)N)C(=O)N[C@@H](Cc1c[nH]c2ccccc12)C(N)=O (stereo in doubt) | 848 nM | 100 | 8.5 nM | 86.5 nM | 10
22 | N=C(N)NCCC[C@H](NC(=O)C(Cc1ccccc1)NC(=O)[C@H](Cc1ccc(Cl)cc1)NC(=O)CC(F)(F)F)C(=O)N[C@@H](Cc1c[nH]c2ccccc12)C(N)=O (stereo in doubt) | 1210 nM | 8 | 150 nM | 886 nM | 
23 | N=C(N)NCCC[C@H](NC(=O)C(Cc1ccccc1)NC(=O)C(Cc1ccccc1)NC(=O)[C@H](Cc1c[nH]cn1)NC(=O)CCCC(=O)c1ccccc1)C(=O)N[C@@H](Cc1c[nH]c2ccccc12)C(N)=O (stereo in doubt) | 0.05 nM | 0.01 | 5 nM | 3 nM | 
